Measurements as given in patent EP0190496A2, “Piperidine derivatives having a gastro-intestinal activity” (BEECHAM GROUP PLC, priority 1984, dated 1986).
Structures can show the parent of a compound that is named as a salt.

test system: ethanol-induced gastric mucosal erosive damage in the rat; test: Inhibition of ethanol-induced gastric mucosal erosive damage (antiulcer test); type: in vivo; settings: Oral Dose 25 µmol/kg, 90 min before 1 ml/rat p.o. absolute ethanol; stomach scored 10 min later; * p<0.05, ** p<0.01, *** p<0.001 (Mann-Whitney U-test)
From the text: The object of the experiment was to test the ability of drugs to inhibit a state of gastric submucosal haemorrhage induced by absolute ethanol in the conscious rat.
The procedure used was as follows. Male rats, preferably Wistars, were fasted overnight in wire mesh bottom cages, so as to prevent copraphagy. Water was allowed ad. libitum. Six or seven rats per cage were regarded as suitable, and the weight range of the rats used was between 175 and 300g. Water was removed one hour prior to treatment. The rats were then randomly allocated to their respective treatment groups, so that there were no less than five rats per group. One control group was always included.
Each rat was pre-dosed with lml/100g of control or test drug, dissolved or suspended in 0.5% methyl cellulose or 1% Tween 80 in water, via an oral dosing needle. Ninety minutes later each rat was dosed with lml/rat p.o. of absolute ethanol. Ten minutes after the absolute ethanol, the rats were killed by an intracardiac injection of Expiral^*. The stomachs were excised, cut open along the greater curvature to expose the mucosal surface, washed in tap water to remove debris, then stretched on a cork board for examination.
A subjective macroscopic examination of the stomach was carried out with a damage score being allocated to each stomach. Two observers were usually used, one of whom scored the results in a 'blinded' manner. The results were then analysed by the Mann-Whitney U-test, with p<0.05 being regarded as statistically significant.
^*(sodium pentobarbitone solution 200mg/ml)

Molecule | % Inhibition of gastric erosions
(+) cis-l-(4'-Fluorobenzyl)-4-(4'-fluorophenyl)-3-(3', 4'-methylenedioxyphenoxymethyl)piperidine hydrochloride [Example 12] | 84.9** %
(+)cis-1-Benzyl-4-(4'-fluorophenyl)3-(3',4'-methylene- dioxyphenoxymethyl)piperidine hydrochloride [Example 7] | 63.1** %
(-) cis-l-(4'-Fluorobenzyl)-4-(4'-fluorophenyl)-3-(3', 4'-methylenedioxyphenoxymethyl)piperidine hydrochloride [Example 13] | 46** %
(-)cis-l-Benzyl-4-(4'-fluorophenyl)-3-(3',4'-methylene- dioxyphenoxymethyl)piperidine hydrochloride [Example 8] | 46.8* %

same assay, conditions: Oral Dose 25 µmol/kg, 90 min before 1 ml/rat p.o. absolute ethanol; stomach scored 10 min later; * p<0.05, ** p<0.01, *** p<0.001 (Mann-Whitney U-test); read-out: % Inhibition of gastric erosions

Molecule | inhibition in vivo at 25 µmol/kg [%]
COc1ccccc1[C@@H]1CCN(Cc2ccccc2)C[C@H]1COc1ccc2c(c1)OCO2 (racemic) [Example 2, (±)trans 1-Benzyl-4-(2'-methoxyphenyl)-3-(3',4'-methylenedioxyphenoxymethyl)piperidine hydrochloride] | 47.7
Fc1ccc(C2=CCN(Cc3ccccc3)CC2COc2ccc3c(c2)OCO3)cc1 (racemic) [Example 11, (±)-1-Benzyl-4-(4'-fluorophenyl)-3-(3,4-methylenedioxy-phenoxymethyl)-1,2,3,6-tetrahydropyridine hydrochloride] | 26
Cc1ccccc1[C@@H]1CCN(Cc2ccccc2)C[C@H]1COc1ccc2c(c1)OCO2 (racemic) [Example 17, (±)-trans-1-Benzyl-3-(3',4'-methylenedioxyphenoxy-methyl)-4-(2'-methylphenyl)piperidine hydrochloride] | 31
Fc1ccc([C@@H]2CCN(Cc3ccccc3)C[C@H]2COc2ccc3c(c2)OCO3)cc1 (single isomer, unassigned) [Example 1, (-)-trans-l-Benzyl-4-(4'-fluorophenyl)-3-(3',4'-methylenedioxyphenoxymethyl)piperidine hydrochloride] | 66
Fc1ccc(CN2CC[C@@H](c3ccc(F)cc3)[C@H](COc3ccc4c(c3)OCO4)C2)cc1 (single isomer, unassigned) [Example 9, (-) trans-l-(4'-fluorobenzyl)-4-(4'-fluorophenyl)-3-(3',4'-methylenedioxyphenoxymethyl)piperidine hydrochloride] | 71
Fc1ccc([C@@H]2CCN(Cc3ccccc3F)C[C@H]2COc2ccc3c(c2)OCO3)cc1 (single isomer, unassigned) [Example 14, (-) trans-l-(2'-Fluorobenzyl)-4-(4'-fluorophenyl)-3-(3',4-methylenedioxyphenoxymethyl)piperidine hydrochloride] | 39
c1ccc(CN2CC[C@@H](c3ccccc3)[C@H](COc3ccc4c(c3)OCO4)C2)cc1 (single isomer, unassigned) [Example 15, (-) trans-l-Benzyl-3-(3',4'-methylenedioxyphenoxy-methyl)-4-phenylpiperidine hydrochloride] | 67
Fc1ccc(CN2CC[C@@H](c3ccccc3)[C@H](COc3ccc4c(c3)OCO4)C2)cc1 (single isomer, unassigned) [Example 16, (-) trans-l-(4'-Fluorobenzyl)-3-(3',4'-methylenedioxy-phenoxymethyl)-4-phenylpiperidine hydrochloride] | 83
Fc1ccc(C2CCN(Cc3ccccc3)CC2COc2ccc3c(c2)OCO3)cc1 (single isomer, unassigned; (+)) [Example 5, (+)trans-l-Benzyl-4-(4'-fluorophenyl)-3-(3',4'-methylenedioxyphenoxymethyl)piperidine hydrochloride] | 30

same assay, conditions: Rattus norvegicus, po, read-out: % Inhibition of gastric erosions

Molecule | inhibition in vivo at 25 µmol/kg [%]
Cc1ccc(OC[C@@H]2CN(Cc3ccccc3)CC[C@H]2c2ccc(F)cc2)cc1 (racemic) [Example 18, (±)-trans-1-Benzyl-4-(4'-fluorophenyl)-3-(4'-methylphenoxymethyl)piperidine maleate] | 21
Cc1ccc(OC[C@@H]2CN(Cc3ccc(F)cc3)CC[C@H]2c2ccc(F)cc2)cc1 (racemic) [Example 19, (±)-trans-1-(4'-Fluorobenzyl)-4-(4'-fluorophenyl)-3-(4'-methylphenoxymethyl)piperidine maleate] | 69
Fc1ccc(CN2CC[C@@H](c3ccc(F)cc3)[C@H](COc3ccccc3)C2)cc1 (racemic) [Example 20, (±)-trans-1-(4'-Fluorobenzyl)-4-(4'-fluorophenyl)-3-phenoxymethylpiperidine maleate] | 70
Fc1ccc(OC[C@@H]2CN(Cc3ccccc3)CC[C@H]2c2ccc(F)cc2)cc1 (racemic) [Example 21, (±)-trans-1-Benzyl-3-(4'-fluorophenoxymethyl)-4-(4'-fluorophenyl)piperidine maleate] | 27
Fc1ccc(CN2CC[C@@H](c3ccc(F)cc3)[C@H](COc3ccc(F)cc3)C2)cc1 (racemic) [Example 22, (±)-trans-1-(4'-Fluorobenzyl)-3-(4'-fluorophenoxy-methyl)-4-(4'-fluorophenyl)piperidine maleate] | 53

test system: Cold restraint stress - induced gastric erosions; test: Cold restraint stress-induced gastric erosions (antiulcer test); type: in vivo, Male Wistar rats; settings: Oral Dose 25 µmol/kg in 0.5% methylcellulose, 30 min before 2.5 hours at 4°C in restraint; mucosal damage scored visually; * p<0.05, ** p<0.01 (Wilcoxon)
Procedure: Male Wistar rats, 175-225g bodyweight are used. Forty eight hours prior to testing, animals are placed in mesh-bottomed cages with 10-12 animals per cage. Twenty-four hours prior to testing, animals are placed in the dark at a temperature of l7 °C. Sixteen hours prior to testing, food is removed from the cages. Drugs are made up in 0.5% methylcellulose, and adminstered at a volume of 1.0ml/100g bodyweight. Eight rats per group are used, with usually 1 control group and 2 test groups. Animals are placed in Bollman type restraining cages and arranged in a vertical position. Thirty minutes after dosing the animals are placed in an ambient temperature of 4 °C for 2.5 hours. At the end of this time the rats are sacrificed, the stomachs removed, cut open and pinned out on cork boards. Mucosal damage is assessed visually and scored on a subjective scale. Statistical differences between control and test groups are assessed using a Wilcoxon Ranking Test.

Molecule | % Inhibition of gastric erosions
COc1ccccc1[C@@H]1CCN(Cc2ccccc2)C[C@H]1COc1ccc2c(c1)OCO2 (racemic) [Example 2, (±)trans 1-Benzyl-4-(2'-methoxyphenyl)-3-(3',4'-methylenedioxyphenoxymethyl)piperidine hydrochloride] | 58* %
Fc1ccc([C@@H]2CCN(Cc3ccccc3)C[C@H]2COc2ccc3c(c2)OCO3)cc1 (single isomer, unassigned) [Example 1, (-)-trans-l-Benzyl-4-(4'-fluorophenyl)-3-(3',4'-methylenedioxyphenoxymethyl)piperidine hydrochloride] | 53** %

test system: Heidenhain pouch of the dog; test: Gastro-intestinal motility: intraluminal pressure in the Heidenhain pouch; type: in vivo; settings: dose of 0.5mg/kg i.v., conscious fasted dog, chronic Heidenhain pouch
Procedure: Pressure changes were recorded via a saline filled catheter inserted, with airtight closure, into the fistula of a chronic Heidenhain pouch of the previously fasted and lightly restrained conscious dog. The catheter was connected to a physiological pressure transducer and pressure changes recorded on a hot wire pen recorder. Compounds were administered when the motility was in a phase of relatively low activity and the dose range determined which induced an increase in the amplitude of rhythmical contractions for a period of at least 4-5 minutes.

Molecule | increase in the amplitude of rhythmical contractions for a period of at least 4-5 minutes
Fc1ccc([C@@H]2CCN(Cc3ccccc3)C[C@H]2COc2ccc3c(c2)OCO3)cc1 (single isomer, unassigned) [Example 1, (-)-trans-l-Benzyl-4-(4'-fluorophenyl)-3-(3',4'-methylenedioxyphenoxymethyl)piperidine hydrochloride] | active
